Consider three molecules from the NIST ThermoML archive (doi:10.1016/j.jct.2016.12.006).

Structures are written as SMILES. ± gives the expanded uncertainty stated by the source.

The data set in a line: refractive index (Na D-line) (dimensionless). Particulars: 303.15 K; 101.33 kPa; Liquid; Standard Abbe refractometry.
What is called refractive index is the speed of light in vacuum divided by its phase velocity in the sample. For the molecule `CCOC(C)=O` [ethyl acetate], the refractive index came to 1.3675 ± 0.004.

Take `OCC(F)(F)C(F)F` [2,2,3,3-tetrafluoro-1-propanol]: the refractive index was found to be 1.3196 ± 0.004.

Consider `CC(=O)OC(C)C` [1-methylethyl ethanoate], for which the refractive index is 1.3701 ± 0.004.
